17 compounds from patent EP0721336B1, “BENZAZOLE COMPOUNDS FOR USE IN THERAPY” (CANCER RESEARCH CAMPAIGN TECHNOLOGY LIMITED, priority 1993, dated 1995) can be followed below.

Structures can show the parent of a compound that is named as a salt. Where two headings read alike, the source gives them in different places. Marks after values point to notes of the source that are not given here.

The test system of data set [1] is MCF-7 mammary carcinoma cells. The data set can be described thus: In vitro cytotoxicity assay (cell growth, propidium iodide fluorescence). The format is cell-based, human. From the text:
(§1) This is illustrated in Tables 1 and 2 at the end of the present description which show in vitro test results obtained in various sets of experiments for the cytotoxic activity of this compound CJM 126 against a range of human tumour cell lines, expressed in terms of IC50 values (concentration or dosage required to reduce cell growth or proliferation by 50%) calculated from dose-effect curves plotted for cultures of the cells in question.
(§2) In carrying out the above in vitro studies, the method used for conducting the cytotoxicity assays was generally substantially as follows: • Cells were maintained in a continuous logarithmic culture in Dulbecco's medium supplemented with 10% fetal calf serum and penicillin (100 IU/ml) and streptomycin (100 µg/ml). The cells were mildly trypsinized for passage and for use in assays. On day zero, 100µl of trypsinized tumour cells (1 x 10^4/ml) were plated in the wells of 96-well flat-bottom microtiter plates. […] On day two 50µl of the highest drug concentration was added to the wells of column 12 and from there serially diluted 3-fold to column 1 by serial transfer of 50µl using an 8-channel micropipette. The final volume of column 1 was adjusted to 100µl. No additions were made to the wells of rows A and B, which served as controls. The plates were further incubated for 5 days at 37°C and 5% CO2 in air. Each compound was tested in duplicate. • On day 7 the test was terminated by the addition of 100µl saline containing 0.002% w/v propidium iodide (Sigma), 0.3% drawing ink (Staedtler "Marsmatic 745" - Trade Mark) and 0.5% Triton X-100. The plates were kept at 4°C overnight before reading on an inverted microscope equipped with an automated scanning stage. Fluorescence intensity was measured in arbitrary units by a photomultiplier. An HP-87 computer controlled the movement of the stage and also collected and processed the data from the multiplier. • For each compound tested a dose-response curve was obtained and the IC50 value (the drug concentration at 50% inhibition of cell growth) was calculated.

Data set [2] has as its system MDA 468 mammary (ER-/EGFR+). The data set can be described thus: In vitro cytotoxicity assay. The format is cell-based, human.
Source text: as §1, §2

For a further data set, the system named is MCF 7-ADR mammary. The data set can be described thus: In vitro cytotoxicity and growth stimulation assay. Format: cell-based, human. As to conditions: for IC50: Homo sapiens, NCI/ADR-RES.
Source text: as §1, §2

The subject of data set [3] is BO (T61) human mammary carcinomas. The data set can be described thus: In vivo activity against implanted BO tumour. Further details: species or system NMRI-nu/nu female mice.
The test system of the next data set is MCF-7 mammary carcinoma. The data set can be described thus: In vivo activity against MCF-7 tumour implanted s.c. To be noted: i.v., 10 mg/kg/day, qd 6, 13, 20.
[4] abbreviates: Homo sapiens, MCF7, MCF 7-wt cells, values in text, read-out: IC50.
Setting [5] is: Homo sapiens, MDA 468 cells, values in text, read-out: IC50.
Setting [6] is: Homo sapiens, MCF-wt, column B, read-out: MCF-wt B IC50 at >micromolar concentrations.
The mark [7] stands for this setting: Homo sapiens, MCF-wt, column A, read-out: MCF-wt A IC50 at sub-micromolar concentrations.
Setting [8] is: Homo sapiens, column B, read-out: MDA 468 B IC50 at >micromolar concentrations.
Where [9] appears, read: Homo sapiens, column A, read-out: MDA 468 A IC50 at sub-micromolar concentrations.
Where [10] appears, read: column B, read-out: MCF7-Adr B IC50 at >micromolar concentrations.

For the compound `Cc1ccc2nc(-c3ccc(N)cc3)sc2c1` [2-(4-aminophenyl)-6-methylbenzothiazole, reference compound], the IC50 in data set [1] (setting [4]) was found to be 0.38 µM; in data set [2] (setting [5]), 0.4 µM.
Regarding `Nc1cccc(-c2nc3ccccc3s2)c1` [CJM 129, 2-(3-Aminophenyl)benzothiazole], in data set [1] (setting [6]), the IC50 was more than 10 µM. Moreover, the “MCF7-Adr A IC50 at sub-micromolar concentrations” value in the data set on MCF 7-ADR mammary (column A) is reported as “Inactive”. In the data set with MCF 7-ADR mammary (column B), the “MCF7-Adr B IC50 at >micromolar concentrations” value is “Inactive”. The BWC in data set [3] (i.p., 2 mg/kg/day, qd 27,34,41) is reported as 2; in data set [3] (i.p., 20 mg/kg/day, qd 27,34,41) it was -3; in data set [3] (i.p., 200 mg/kg/day, qd 27,34,41), -6. The “Relative tumour volume (T/C%)” value in data set [3] (i.p., 2 mg/kg/day, qd 27,34,41, d33) is given as 127%; in data set [3] (i.p., 2 mg/kg/day, qd 27,34,41, d41), 91%; in data set [3] (i.p., 2 mg/kg/day, qd 27,34,41, d47) it was 94%; in data set [3] (i.p., 2 mg/kg/day, qd 27,34,41, d55), 95%; in data set [3] (i.p., 2 mg/kg/day, qd 27,34,41, d61), 78%; in data set [3] (i.p., 20 mg/kg/day, qd 27,34,41, d33), 88%. The “Relative tumour volume (T/C%)” value in data set [3] (i.p., 20 mg/kg/day, qd 27,34,41, d41) is given as 77%; in data set [3] (i.p., 20 mg/kg/day, qd 27,34,41, d47) it was 54%; in data set [3] (i.p., 20 mg/kg/day, qd 27,34,41, d55) it was 73%; in data set [3] (i.p., 20 mg/kg/day, qd 27,34,41, d61), 48* %; in data set [3] (i.p., 200 mg/kg/day, qd 27,34,41, d33), 78* %; in data set [3] (i.p., 200 mg/kg/day, qd 27,34,41, d41), 45* %. The “Relative tumour volume (T/C%)” value in data set [3] (i.p., 200 mg/kg/day, qd 27,34,41, d47) is listed as 32* %; in data set [3] (i.p., 200 mg/kg/day, qd 27,34,41, d55) it was 33* %; in data set [3] (i.p., 200 mg/kg/day, qd 27,34,41, d61), 36* %.
Take `COc1ccc2nc(-c3ccc(N)cc3)sc2c1` [Compound 93002, 2-(4-Aminophenyl)-6-methoxybenzothiazole]: the IC50 in data set [1] (setting [7]) is 0.38 µM; in data set [2] (setting [8]), 7.64 µM.
`CCS(=O)(=O)O.Nc1ccc(-c2nc3ccccc3s2)cc1` [Compound 93003, Ethanesulphonic acid salt of 2-(4-aminophenyl)benzothiazole]: the IC50 was determined as 0.0046 µM in data set [1] (MCF-wt, column A, read-out: MCF-wt A IC50 at sub-micromolar concentrations) and 0.0024 µM in data set [2] (column A, read-out: MDA 468 A IC50 at sub-micromolar concentrations). For the same compound, the “MCF7-Adr C Concentrations which stimulate cell growth” value in the data set with MCF 7-ADR mammary (column C) is 3,10 µM.
On to `Nc1ccc(-c2nc3ccccc3s2)c(Cl)c1` [Compound 93004, 2-(4-Amino-2-Chlorophenyl)benzothiazole], for which the results for the IC50 in data set [1] (setting [7]) and in data set [2] (setting [9]) were 0.142 µM and 0.003 µM, respectively.
For `COc1cccc2sc(-c3ccc(N)cc3Cl)nc12` [Compound 93005, 2-(4-amino-2-chlorophenyl)-4-methoxybenzothiazole], the IC50 was found to be 0.063 µM in data set [1] (setting [7]); 0.0465 µM in the data set on MCF 7-ADR mammary (column A, read-out: MCF7-Adr A IC50 at sub-micromolar concentrations); 0.0022 µM in data set [2] (setting [9]).
With `c1ccc2sc(-c3ccc(N4CCCC4)cc3)nc2c1` [Compound 93006, 2-[4-(Pyrrolidin-1-yl)phenyl]benzothiazole], in data set [1] (setting [7]), the IC50 amounted to 0.867 µM.
With `c1ccc2sc(-c3ccc(N4CCCCC4)cc3)nc2c1` [Compound 93007, 2-[4-(Piperidin-1-yl)phenyl]benzothiazole], the IC50 in data set [1] (setting [6]) was found to be 2.77 µM.
As to `c1ccc2sc(-c3ccc(N4CCOCC4)cc3)nc2c1` [Compound 93008, 2-[4-(Morpholin-4-yl)phenyl]benzothiazole], the IC50 in data set [1] (setting [7]) worked out at 0.16 µM.
In the case of `O=P1(N(CCCl)CCCl)NCCCO1` (centres unmarked) [Cyclophosphamide, reference compound], the BWC in data set [3] (i.p., 150 mg/kg/day, qd 27) is -4. For the same compound, the “Relative tumour volume (T/C%)” value in data set [3] (i.p., 150 mg/kg/day, qd 27, d33) is 117%; in data set [3] (i.p., 150 mg/kg/day, qd 27, d41), 27* %; in data set [3] (i.p., 150 mg/kg/day, qd 27, d47), 29* %; in data set [3] (i.p., 150 mg/kg/day, qd 27, d55) it was 19* %; in data set [3] (i.p., 150 mg/kg/day, qd 27, d61), 5* %.
Regarding `Nc1ccc(-c2nc3ccccc3o2)cc1` [DF140, 2-(4-Aminophenyl)benzoxazole], the IC50 is 0.11 µM in data set [1] (setting [7]) and more than 10 µM in data set [2] (setting [8]).
Turning to `Nc1ccc(-c2nc3cc(OCc4ccccc4)ccc3s2)c(Cl)c1` [DF161, 2-(4-Amino-2-chlorophenyl)-5-benzyloxybenzothiazole], the IC50 in data set [1] (setting [7]) is 0.001 µM; in data set [1] (setting [6]) it was 55.9 µM; in the data set on MCF 7-ADR mammary (setting [10]), 84.8 µM; in data set [2] (setting [9]) it was 0.0007 µM; in data set [2] (setting [8]) it was 2.84 µM.
Turning to `COc1cc(OC)c2sc(-c3ccc(N)cc3)nc2c1` [DF162D, 2-(4-Aminophenyl)-5,7-dimethoxybenzothiazole], the IC50 turned out to be 19.3 µM in data set [1] (setting [6]), 20.9 µM in the data set on MCF 7-ADR mammary (setting [10]) and 0.0035 µM in data set [2] (setting [9]).
Take `Nc1ccc(-c2nc3ccccc3s2)cc1` [Example IC, 2-(4-Aminophenyl)benzothiazole methanesulphonic acid salt]: the values for the IC50 in data set [1] (setting [4]) and in data set [2] (setting [5]) were 0.0007 µM and 0.0024 µM, respectively.
`Nc1ccc(OS(=O)(=O)C(F)(F)F)c(-c2nc3ccccc3s2)c1` [Example XIV, 2-(3-Amino-6-trifluoromethylsulphonyloxyphenyl)benzothiazole]: in data set [1] (Homo sapiens, MCF7, MCF-7 (wild type) cells, read-out: IC50), the IC50 was 0.05 µM.
In turn, `O=C1c2c(O)ccc(O)c2C(=O)c2c(NCCNCCO)ccc(NCCNCCO)c21` [Mitoxantrone, reference compound] had a BWC in data set [3] (i.v., 10 mg/kg/day, qd 27) of -5. Besides, the “Relative tumour volume (T/C%)” value was 58* % in data set [3] (i.v., 10 mg/kg/day, qd 27, d33); 26* % in data set [3] (i.v., 10 mg/kg/day, qd 27, d41); 6* % in data set [3] (i.v., 10 mg/kg/day, qd 27, d47); 7* % in data set [3] (i.v., 10 mg/kg/day, qd 27, d55); 4* % in data set [3] (i.v., 10 mg/kg/day, qd 27, d61); 52% in the data set on MCF-7 mammary carcinoma (d9). Also, the “Relative tumour volume (T/C%)” value in the data set on MCF-7 mammary carcinoma (d13) is 32* %; in the data set on MCF-7 mammary carcinoma (d20) it was 38* %; in the data set on MCF-7 mammary carcinoma (d27), 26* %; with MCF-7 mammary carcinoma (d35), 29* %; in the data set on MCF-7 mammary carcinoma (d43), 29* %. The “BWC (%)” value with MCF-7 mammary carcinoma (relative to saline treated animals) is given as -10%.
Compound `CC[C@]1(O)C[C@H]2CN(CCc3c([nH]c4ccccc34)[C@@](C(=O)OC)(c3cc4c(cc3OC)N(C=O)[C@H]3[C@@](O)(C(=O)OC)[C@H](OC(C)=O)[C@]5(CC)C=CCN6CC[C@]43[C@@H]65)C2)C1` [Vincristine, reference compound] showed a BWC in data set [3] (i.p., 1 mg/kg/day, qd 27) of -6. Besides, the “Relative tumour volume (T/C%)” value is 142% in data set [3] (i.p., 1 mg/kg/day, qd 27, d33); 62% in data set [3] (i.p., 1 mg/kg/day, qd 27, d41); 61% in data set [3] (i.p., 1 mg/kg/day, qd 27, d47); 61% in data set [3] (i.p., 1 mg/kg/day, qd 27, d55); 57% in data set [3] (i.p., 1 mg/kg/day, qd 27, d61).
